# Patent publication US12569479B2 (priority 2016, dated 2026)
# Like-named read-outs stand apart in the source and are kept apart here.
# Assays:
# [1] = tested on: patients with treatment resistant depression (TRD); assay: Phase 3 randomized, double-blind, active controlled trial of DM/BU in treatment resistant depression
# Excerpt: Inclusion criteria for the open-label period included males or females 18-65 years of age, a history of inadequate response to 1 or 2 prior antidepressant treatments, established by the Antidepressant Treatment Response Questionaire (ATRQ), and a Hamilton Depression Rating Scale (HAMD-17) total score of ≥18. Inclusion criteria for the double-blind period included inadequate response to 2 or 3 prior antidepressant treatments, including open-label period failure. Exclusion criteria included a history of electroconvulsive therapy, vagus nerve stimulation, transcranial magnetic stimulation, or any experimental central nervous system treatment during the current episode or in the past 6 months, schizophrenia, bipolar disorder, obsessive compulsive disorder, psychiatric symptoms secondary to any other general medical condition.
# The change in depressive symptoms over time was measured using the Montgomery-Asberg Depression Rating Scale (MADRS) and the Quick Inventory of Depressive Symptomatology-Self-Rated (QIDS-SR-16). The primary endpoint was the change from baseline in the MADRS after 6 weeks of treatment. The key secondary endpoints were the change from baseline in the MADRS after 1 week of treatment, after 2 weeks of treatment, the average change over entire 6-week double-blind treatment period, and the Sheehan Disability Scale (SDS). Other pre-specified secondary efficacy variables included the Cognitive subscale of the Massachusetts General Hospital Cognitive and Physical Functioning Questionnaire (CPFQ), and the Hamilton Anxiety Scale (HAM-A).
# [2] = tested on: metabolism of dextromethorphan to dextrorphan in human liver microsomes; assay: Inhibition of the metabolism of dextromethorphan in human liver microsomes; conditions: human, human liver microsomes, pH 7.4, probe dextromethorphan (5 μM)
# Description: (§1) The ability of various antidepressant compounds to inhibit the metabolism of dextromethorphan was examined using human liver microsomes.
# (§2) After optimal incubation at 37° C., the reactions were terminated by addition of methanol containing internal standard for analytical quantification. The quenched samples were incubated at 4° C. for 10 minutes and centrifuged at 4° C. for 10 minutes. The supernatant was removed, and the metabolite of dextromethorphan (dextrorphan) was analyzed by LC-MS/MS.
# [3] = tested on: dextromethorphan metabolism (dextromethorphan/dextrorphan metabolic ratio); conditions: human, in vivo, 3 h
# Description: (§3) Plasma concentrations of dextromethorphan and dextrorphan 3 hours after dosing were used, with a dextromethorphan/dextrorphan ratio of 0.3 or greater indicating a poor metabolizer phenotype.
# [4] = tested on: daily smokers using 10 or more cigarettes per day (nicotine addiction); assay: Phase 2 randomized, double-blind, active-controlled study of DM/BU for smoking cessation treatment; assay type: in vivo, human
# Excerpt: Enrolled subjects were daily smokers using 10 or more cigarettes per day.
# The primary outcome measure was the change in smoking intensity, measured using the number of cigarettes smoked per day, assessed via daily smoking diaries.
# [5] = tested on: patients with agitation associated with Alzheimer's disease; assay: Phase 2/3 randomized, double-blind, controlled trial of DM/BU in agitation associated with Alzheimer's disease
# Description: (§4) A Phase 2/3 randomized, double-blind, controlled, multicenter, U.S. clinical trial was conducted to evaluate the efficacy and safety of DM/BU in patients with agitation associated with Alzheimer's disease. […] Subsequently, patients were randomized in a 1:1 ratio to receive DM/BU or placebo. […] The minimum score on the CMAI is 29, corresponding to the total absence of symptoms, with higher scores corresponding to greater agitation. The primary endpoint of the study was the change from baseline in the CMAI total score at Week 5. P-values were calculated based on least square mean estimates.
# [6] = human, in vivo
# [7] = tested on: adult patients with moderate to severe major depressive disorder (MDD); assay: Phase 2 randomized, double-blind, active-controlled trial of DM/BU in major depressive disorder; assay type: in vivo, human; conditions: twice daily for 6 weeks; DM/BU 45 mg/105 mg or bupropion 105 mg
# Description: The changes from baseline in the Montgomery-Asberg Depression Rating Scale (MADRS) total score over the 6-week treatment period were calculated at each time point and averaged.
# [8] = tested on: patients with agitation associated with Alzheimer's disease; conditions: both, human, in vivo, 5 weeks
# Description: as §4
# [9] = tested on: metabolism of dextromethorphan in human liver microsomes; assay: Inhibition of the metabolism of dextromethorphan in human liver microsomes; conditions: read-out: Mean IC50; human liver microsomes 0.5 mg/mL, dextromethorphan 5 μM, 37° C.; dextrorphan formation
# Description: as §1, §2
# [10] = tested on: metabolism of dextromethorphan in human liver microsomes
# Description: as §1, §2
# [11] = Pharmacokinetic study of dextromethorphan (DM) alone or DM in combination with bupropion, plasma concentrations by LC-MS/MS; conditions: for Cmax: Dextromethorphan Cmax; for average plasma concentration: Day 8, after bupropion administration
# [12] = tested on: dextromethorphan metabolism (dextromethorphan/dextrorphan metabolic ratio); assay: Phenotypic determination of dextromethorphan metabolizer status (dextromethorphan/dextrorphan metabolic ratio); conditions: Day 8; 3 hours after dosing
# Description: as §3
# [13] = tested on: metabolism of dextromethorphan to dextrorphan in human liver microsomes; assay: in vitro; conditions: pH 7.4
# Description: as §1, §2
# [14] = DM/BU 45 mg/105 mg or bupropion 150 mg twice daily
# [15] = Open-label Period, bupropion 150 mg twice daily
structure (smiles),measurement,setting,value
CC(NC(C)(C)C)C(=O)c1cccc(Cl)c1.Cl (racemic) [Bupropion],mean reduction in MADRS averaged over the entire 6-week treatment period,[1]; [14],6.7
same,mean reduction in QIDS-SR-16 averaged over the entire 6-week treatment period,[1]; [14],2.3
same,"Anxiety, number of subjects",[1]; Double-blind Period,0 subjects
same,"Any TEAE, % of subjects",[1]; Double-blind Period,(39.1%)
same,"Any TEAE, number of subjects",[1]; Double-blind Period,61 subjects
same,"Constipation, % of subjects",[1]; Double-blind Period,(1.9%)
same,"Constipation, number of subjects",[1]; Double-blind Period,3 subjects
same,"Dizziness, number of subjects",[1]; Double-blind Period,0 subjects
same,"Dry mouth, % of subjects",[1]; Double-blind Period,(1.9%)
same,"Dry mouth, number of subjects",[1]; Double-blind Period,3 subjects
same,"Headache, % of subjects",[1]; Double-blind Period,(4.5%)
same,"Headache, number of subjects",[1]; Double-blind Period,7 subjects
same,"Insomnia, % of subjects",[1]; Double-blind Period,(3.2%)
same,"Insomnia, number of subjects",[1]; Double-blind Period,5 subjects
same,"Irritability, % of subjects",[1]; Double-blind Period,(1.3%)
same,"Irritability, number of subjects",[1]; Double-blind Period,2 subjects
same,"Nausea, % of subjects",[1]; Double-blind Period,(1.9%)
same,"Nausea, number of subjects",[1]; Double-blind Period,3 subjects
same,rate of discontinuation due to adverse events,[1]; Double-blind Period,1.9%
same,"Anxiety, % of subjects",[1]; Open-label Period,(3.5%)
same,"Anxiety, number of subjects",[1]; Open-label Period,11 subjects
same,"Constipation, % of subjects",[1]; Open-label Period,(4.2%)
same,"Constipation, number of subjects",[1]; Open-label Period,13 subjects
same,"Dizziness, % of subjects",[1]; Open-label Period,(2.9%)
same,"Dizziness, number of subjects",[1]; Open-label Period,9 subjects
same,"Dry mouth, % of subjects",[1]; Open-label Period,(4.2%)
same,"Dry mouth, number of subjects",[1]; Open-label Period,13 subjects
same,"Headache, % of subjects",[1]; Open-label Period,(4.5%)
same,"Headache, number of subjects",[1]; Open-label Period,14 subjects
same,"Insomnia, % of subjects",[1]; Open-label Period,(6.1%)
same,"Insomnia, number of subjects",[1]; Open-label Period,19 subjects
same,"Irritability, % of subjects",[1]; Open-label Period,(3.2%)
same,"Irritability, number of subjects",[1]; Open-label Period,10 subjects
same,"Nausea, % of subjects",[1]; Open-label Period,(7.1%)
same,"Nausea, number of subjects",[1]; Open-label Period,22 subjects
same,"Any TEAE, % of subjects",[1]; [15],(43.5)
same,"Any TEAE, number of subjects",[1]; [15],135 subjects
same,mean MADRS reduction,[1]; Week 1,3.6
same,mean MADRS reduction,[1]; Week 2,6.1
same,rate of remission from depression (QIDS-SR-16 ≤5),[1]; Week 6,8.2%
same,mean MADRS reduction,[1]; Week 6 (primary endpoint),9.4
same,IC50,[2],9.1 µM
same,subjects converted to poor metabolizer status,[3],100%
same,proportion of smokers with more than 50% reduction in expired carbon monoxide levels,[4]; 3-week period,30.4%
same,average reduction in cigarettes smoked per day,"[4]; over the 3-week period, twice daily",6.79 cigarettes per day
same,"Deaths, % of subjects",[5]; Safety Population,(2.0%
same,"Deaths, number of subjects",[5]; Safety Population,1 subjects
same,"Deaths, number of subjects","[5]; Safety Population, listed as bupropion",one
same,mean reduction from baseline in the CMAI total score,[5]; Week 5 (primary endpoint),10.0 points
same,reduction in mean dextrorphan AUC0-12,[6],~55%
same,reduction in mean dextrorphan Cmax,[6],~78%
same,Change in MADRS Total Score at week 6,[7],−12.1
same,Change in MADRS Total Score over 6-week period (averaged),[7],−8.8
same,"Diarrhea, number of subjects",[8],3 subjects
same,"Discontinuation due to AEs, number of subjects",[8],1 subjects
same,"Dizziness, number of subjects",[8],5 subjects
same,"Falls, % of subjects",[8],(14.3%)
same,"Falls, number of subjects",[8],7 subjects
same,"Fatigue, % of subjects",[8],(10.2%)
same,"Fatigue, number of subjects",[8],5 subjects
same,"Headache, % of subjects",[8],(6.1%)
same,"Headache, number of subjects",[8],3 subjects
same,"Insomnia, % of subjects",[8],(6.1%)
same,"Insomnia, number of subjects",[8],3 subjects
same,"Serious AEs, number of subjects",[8],4 subjects
same,"Somnolence, number of subjects",[8],2 subjects
same,"Subjects with any TEAE, % of subjects",[8],(61.2%)
same,"Subjects with any TEAE, number of subjects",[8],30 subjects
"C[C@@H]1NC(C)(C)CO[C@@]1(O)c1cccc(Cl)c1 [(25,3S)-Hydroxybupropion]",IC50,[9],12.5 µM
"C[C@H]1NC(C)(C)CO[C@]1(O)c1cccc(Cl)c1 [(R,R)-Hydroxybupropion]",IC50,[9],8.2 µM
CNCC[C@H](Oc1cccc2ccccc12)c1cccs1 [(S)-Duloxetine],IC50,[10],4.1 µM
CN(C)CCCC1(c2ccc(F)cc2)OCc2cc(C#N)ccc21 (centres unmarked) [Citalopram],IC50,[2],14.1 µM
CN(C)CC(c1ccc(O)cc1)C1(O)CCCCC1 (centres unmarked) [Desvenlafaxine],IC50,[2],97.3 µM
COc1ccc2c(c1)[C@]13CCCC[C@@H]1[C@H](C2)N(C)CC3 [Dextromethorphan],Mean Trough Dextromethorphan Plasma Concentrations,[11]; Day 1,0.7 ng/mL
same,Mean Trough Dextromethorphan Plasma Concentrations,[11]; Day 5,1.2 ng/mL
same,Mean Trough Dextromethorphan Plasma Concentrations,[11]; Day 6,1.3 ng/mL
same,Mean Trough Dextromethorphan Plasma Concentrations,[11]; Day 7,1.2 ng/mL
same,Dextromethorphan Cavg,[11]; Day 8,2.3 ng/mL
same,Dextromethorphan Cmin,[11]; Day 8,1.1 ng/mL
same,Mean Trough Dextromethorphan Plasma Concentrations,[11]; Day 8,1.1 ng/mL
same,mean elimination half-life (T1/2 el) of dextromethorphan,[11]; Day 8,6.6 h
same,AUC(0-inf),"[11]; human, in vivo, 60 mg",41.2 ng·h/mL
same,Tmax,"[11]; human, in vivo, 60 mg",2.3 h
same,concentration at 0 h,"[11]; human, in vivo, 60 mg",1.2 ng/mL
same,concentration at 1 h,"[11]; human, in vivo, 60 mg",2.4 ng/mL
same,concentration at 2 h,"[11]; human, in vivo, 60 mg",3.6 ng/mL
same,concentration at 3 h,"[11]; human, in vivo, 60 mg",3.6 ng/mL
same,concentration at 4 h,"[11]; human, in vivo, 60 mg",3.3 ng/mL
same,concentration at 6 h,"[11]; human, in vivo, 60 mg",2.5 ng/mL
same,concentration at 8 h,"[11]; human, in vivo, 60 mg",1.9 ng/mL
same,concentration at 12 h,"[11]; human, in vivo, 60 mg",1.1 ng/mL
same,concentration at 24 h,"[11]; human, in vivo, 60 mg",0.4 ng/mL
same,concentration at 36 h,"[11]; human, in vivo, 60 mg",0.1 ng/mL
same,AUC(0-t),"[11]; human, in vivo, 60 mg, Dextromethorphan AUC0-12, Day 1",20.1 ng·h/mL
same,AUC(0-t),"[11]; human, in vivo, 60 mg, Dextromethorphan AUC0-12, Day 8",28.1 ng·h/mL
same,AUC(0-t),"[11]; human, in vivo, 60 mg, Dextromethorphan AUC0-24, Day 8",37.1 ng·h/mL
same,Cmax,"[11]; human, in vivo, 60 mg, Day 1",3 ng/mL
same,Cmax,"[11]; human, in vivo, 60 mg, Day 8",3.8 ng/mL
same,mean plasma dextromethorphan/dextrorphan metabolic ratio,[12],remained unchanged
CC(NC(C)(C)C)C(O)c1cccc(Cl)c1 (centres unmarked) [Erythrohydroxybupropion],average plasma concentration,[11],≥ 20 ng/mL
same,IC50,[9],1.4 µM
CN(C)CCC[C@@]1(c2ccc(F)cc2)OCc2cc(C#N)ccc21 [Escitalopram],IC50,[2],17.1 µM
COCCCC/C(=N\OCCN)c1ccc(C(F)(F)F)cc1 [Fluvoxamine],IC50,[2],6.5 µM
C[C@H](NC(C)(C)C)[C@@H](O)c1cccc(Cl)c1 [Threohydroxybupropion],average plasma concentration,[11],≥ 100 ng/mL
same,IC50,[9],3.9 µM
COc1ccc(C(CN(C)C)C2(O)CCCCC2)cc1 (centres unmarked) [Venlafaxine],IC50,[13],27.7 µM
C[C@H]1NC(C)(C)CO[C@]1(O)c1cccc(Cl)c1 [hydroxybupropion],average plasma concentration,[11],≥ 200 ng/mL
